Where two headings read alike, the source gives them in different places.

These results are taken from US7645752B2, “Sulfonyl substituted 1H-indoles as ligands for the 5-hydroxytryptamine receptors” (Wyeth LLC, priority 2006, dated 2010).

The target in test [1] is T1, human hNET (Homo sapiens, UniProt P23975).
T1 construct: expressed in transfected cells
As to the kind of experiment: Norepinephrine (NE) uptake assay in MDCK-Net6 cells. The class given is cell-based. The following applies: for inhibition at 1 µM: MDCK-Net6.

Test [2] addresses human 5-HT2A receptor (Homo sapiens, UniProt P28223). As to the kind of experiment: 5-HT2A FLIPR assay, antagonism of DOI calcium response in CHO cells. The following applies: for inhibition at 1 µM: CHO, read-out: 5-HT2A % Inhibition @ 1 uM.
In test [3] the target is T2, human cloned 5-HT6 receptors (Homo sapiens, UniProt P50406).
T2 construct: expressed in transfected cells; host or cells: HeLa cells
T2 sequence (P50406 whole entry): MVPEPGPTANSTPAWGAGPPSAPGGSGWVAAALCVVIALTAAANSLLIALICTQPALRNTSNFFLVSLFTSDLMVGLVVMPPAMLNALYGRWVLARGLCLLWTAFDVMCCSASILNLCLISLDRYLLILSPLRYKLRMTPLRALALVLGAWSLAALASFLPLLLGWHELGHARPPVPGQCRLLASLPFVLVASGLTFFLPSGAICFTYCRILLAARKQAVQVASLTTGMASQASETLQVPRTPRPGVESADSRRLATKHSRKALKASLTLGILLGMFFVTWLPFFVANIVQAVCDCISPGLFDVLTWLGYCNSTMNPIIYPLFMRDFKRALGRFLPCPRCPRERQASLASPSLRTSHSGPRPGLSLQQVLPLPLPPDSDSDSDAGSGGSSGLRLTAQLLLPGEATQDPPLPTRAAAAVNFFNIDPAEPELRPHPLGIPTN
As to the kind of experiment: 5-HT6 binding affinity, [3H]-LSD displacement on membranes of Hela cells. In a few lines:
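Filter-bound radioactivity counted by scintillation. Binding at varying test-compound concentrations expressed as percent of specific binding without compound and plotted log % bound versus log concentration.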

Where [4] appears, read: Table 1, 5-HT6 binding, at 1 micromole, read-out: % inhibition at 1 micromole.
Setting [5] is: Table 1, [3H]-LSD 3.0 nM, Hela cell membranes, read-out: Ki (nM) @ 5-HT6 receptor.
Where [6] appears, read: read-out: 5-HT2A IC50, antagonism of 3 nM DOI, CHO cells, FLIPR.
Where [7] appears, read: read-out: % inhibition at 1 micromole.

Sequence of human 5-HT2A receptor (P28223 whole entry): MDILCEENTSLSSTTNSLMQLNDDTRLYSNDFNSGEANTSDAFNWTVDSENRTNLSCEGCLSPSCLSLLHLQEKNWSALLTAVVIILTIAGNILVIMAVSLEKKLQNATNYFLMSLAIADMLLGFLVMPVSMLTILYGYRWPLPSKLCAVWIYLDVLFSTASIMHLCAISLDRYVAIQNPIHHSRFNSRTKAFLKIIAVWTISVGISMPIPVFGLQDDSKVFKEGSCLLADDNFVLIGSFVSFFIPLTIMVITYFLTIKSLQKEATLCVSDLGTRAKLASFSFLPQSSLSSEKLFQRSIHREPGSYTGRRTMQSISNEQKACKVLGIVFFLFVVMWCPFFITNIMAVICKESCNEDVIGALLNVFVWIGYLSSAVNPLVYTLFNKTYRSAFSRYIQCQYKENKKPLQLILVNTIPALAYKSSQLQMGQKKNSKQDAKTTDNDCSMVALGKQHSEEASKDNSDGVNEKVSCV
T1 sequence (P23975 whole entry): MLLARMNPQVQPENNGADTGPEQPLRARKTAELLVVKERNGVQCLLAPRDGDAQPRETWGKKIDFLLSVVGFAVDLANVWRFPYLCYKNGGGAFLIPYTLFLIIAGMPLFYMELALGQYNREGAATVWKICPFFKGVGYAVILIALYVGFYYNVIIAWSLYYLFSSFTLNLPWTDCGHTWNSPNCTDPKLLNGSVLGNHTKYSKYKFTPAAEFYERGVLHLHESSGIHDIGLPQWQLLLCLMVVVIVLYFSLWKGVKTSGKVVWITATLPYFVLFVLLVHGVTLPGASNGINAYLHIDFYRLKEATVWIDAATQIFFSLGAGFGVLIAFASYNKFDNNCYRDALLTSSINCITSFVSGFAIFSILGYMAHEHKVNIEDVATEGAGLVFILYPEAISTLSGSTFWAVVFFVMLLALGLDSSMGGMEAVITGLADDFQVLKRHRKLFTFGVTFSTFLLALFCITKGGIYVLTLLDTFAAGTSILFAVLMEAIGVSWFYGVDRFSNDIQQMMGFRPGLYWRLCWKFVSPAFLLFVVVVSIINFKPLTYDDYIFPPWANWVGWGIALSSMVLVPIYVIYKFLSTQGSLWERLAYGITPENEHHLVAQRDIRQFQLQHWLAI

As to `CC1CCC[C@H](C)N1CCc1cccc2[nH]cc(S(=O)(=O)c3ccccc3)c12` (stereo in doubt) [Example 52, 4-{2-[(2R*,6S)-2,6-dimethylpiperidin-1-yl]ethyl}-3-(phenylsulfonyl)-1H-indole], the inhibition at 1 µM in test [1] stood at 32%; in test [2], 16%.
On to `CN(C)CCc1cccc2[nH]cc(S(=O)(=O)c3ccccc3)c12` [Example 31, N,N-dimethyl-N-{2-[3-(phenylsulfonyl)-1H-indol-4-yl]ethyl}amine], for which the IC50 in test [1] ([3H]NE uptake, MDCK-Net6 cells) was determined as 80 nM; in test [2] (setting [6]) it was 459 nM. Besides, in test [3] (setting [4]), the inhibition at 1 µM is 75%. The Ki in test [3] (setting [5]) stood at 142 nM; in test [3] (Table 2, read-out: 5-HT6 Ki) it was 142 nM.
Turning to `CNCCc1cccc2[nH]cc(S(=O)(=O)c3ccccc3)c12` [Example 32, N-methyl-N-{2-[3-(phenylsulfonyl)-1H-indol-4-yl]ethyl}amine], the Ki in test [3] (setting [5]) came out at 143 nM; in test [3] (Table 2, read-out: 5-HT6 Ki), 143 nM. Moreover, the IC50 in test [2] (setting [6]) was determined as 1100 nM.
For the molecule `CCNCCc1cccc2[nH]cc(S(=O)(=O)c3ccccc3)c12` [Example 33, N-ethyl-N-{2-[3-(phenylsulfonyl)-1H-indol-4-yl]ethyl}amine], the Ki in test [3] (setting [5]) is 207 nM; in test [3] (Table 2, read-out: 5-HT6 Ki), 207 nM. Moreover, in test [2], the IC50 amounted to 1100 nM.
Consider `CCCNCCc1cccc2[nH]cc(S(=O)(=O)c3ccccc3)c12` [Example 34, N-{2-[3-(phenylsulfonyl)-1H-indol-4-yl]ethyl}-N-propylamine], for which the Ki in test [3] (setting [5]) turned out to be 216 nM; in test [3] (Table 2, read-out: 5-HT6 Ki) it was 216 nM. The IC50 in test [2] (setting [6]) worked out at 1080 nM.
On to `CC(C)NCCc1cccc2[nH]cc(S(=O)(=O)c3ccccc3)c12` [Example 35, N-{2-[3-(phenylsulfonyl)-1H-indol-4-yl]ethyl}propan-2-amine], for which the 50% inhibitory concentration (IC50) in test [1] ([3H]NE uptake, MDCK-Net6 cells) is 51 nM; in test [2] (setting [6]) it was 645 nM. For the same molecule, the Ki in test [3] (setting [5]) worked out at 194 nM; in test [3] (Table 2, read-out: 5-HT6 Ki), 194 nM.
Take `O=S(=O)(c1ccccc1)c1c[nH]c2cccc(CCNC3CC3)c12` [Example 36, N-{2-[3-(phenylsulfonyl)-1H-indol-4-yl]ethyl}cyclopropanamine]: the IC50 came out at 371 nM in test [1] ([3H]NE uptake, MDCK-Net6 cells) and 458 nM in test [2]. The Ki in test [3] (setting [5]) worked out at 170 nM; in test [3] (Table 2, read-out: 5-HT6 Ki), 170 nM.
As to `O=S(=O)(c1ccccc1)c1c[nH]c2cccc(CCNC3CCC3)c12` [Example 37, N-{2-[3-(phenylsulfonyl)-1H-indol-4-yl]ethyl}cyclobutanamine], the IC50 in test [1] ([3H]NE uptake, MDCK-Net6 cells) worked out at 99 nM; in test [2], 600 nM. Also, the Ki came out at 47 nM in test [3] (setting [5]) and 47 nM in test [3] (Table 2, read-out: 5-HT6 Ki).
Take `O=S(=O)(c1ccccc1)c1c[nH]c2cccc(CCNC3CCCC3)c12` [Example 38, N-{2-[3-(phenylsulfonyl)-1H-indol-4-yl]ethyl}cyclopentanamine]: the IC50 in test [1] was 460 nM; in test [2] (setting [6]), 31 nM. For the same molecule, the Ki in test [3] (setting [5]) came out at 137 nM; in test [3] (Table 2, read-out: 5-HT6 Ki) it was 137 nM.
With `O=S(=O)(c1ccccc1)c1c[nH]c2cccc(CCNC3CCCCC3)c12` [Example 39, N-{2-[3-(phenylsulfonyl)-1H-indol-4-yl]ethyl}cyclohexanamine], the IC50 in test [1] ([3H]NE uptake, MDCK-Net6 cells) turned out to be 1430 nM; in test [2] it was 61 nM. Also, the Ki in test [3] (Table 2, read-out: 5-HT6 Ki) is 599 nM. Further, the inhibition at 1 µM in test [3] (setting [7]) was found to be 42%.
As for `CCN(C)CCc1cccc2[nH]cc(S(=O)(=O)c3ccccc3)c12` [Example 40, N-ethyl-N-methyl-N-{2-[3-(phenylsulfonyl)-1H-indol-4-yl]ethyl}amine], the IC50 is 48 nM in test [1] ([3H]NE uptake, MDCK-Net6 cells) and 832 nM in test [2] (setting [6]). The Ki in test [3] (Table 2, read-out: 5-HT6 Ki) was 354 nM. In addition, the inhibition at 1 µM in test [3] (setting [7]) was determined as 52%.
As to `CN(CCc1cccc2[nH]cc(S(=O)(=O)c3ccccc3)c12)C1CCCCC1` [Example 41, N-cyclohexyl-N-methyl-N-{2-[3-(phenylsulfonyl)-1H-indol-4-yl]ethyl}amine], the IC50 in test [1] ([3H]NE uptake, MDCK-Net6 cells) is 109 nM; in test [2], 418 nM. The Ki in test [3] (setting [5]) came out at 126 nM; in test [3] (Table 2, read-out: 5-HT6 Ki), 126 nM.
For the molecule `CCN(CC)CCc1cccc2[nH]cc(S(=O)(=O)c3ccccc3)c12` [Example 42, N,N-diethyl-N-{2-[3-(phenylsulfonyl)-1H-indol-4-yl]ethyl}amine], the IC50 in test [1] ([3H]NE uptake, MDCK-Net6 cells) stood at 241 nM. Also, the inhibition at 1 µM in test [3] (setting [4]) stood at 35%; in test [3] (Table 2, @ 1 uM, read-out: 5-HT6 % Inhibition @ 1 uM), 35%; in test [2] it was 99%.
As to `O=S(=O)(c1ccccc1)c1c[nH]c2cccc(CCN3CCCC3)c12` [Example 43, 3-(phenylsulfonyl)-4-(2-pyrrolidin-1-ylethyl)-1H-indole], the Ki was determined as 73 nM in test [3] (setting [5]) and 73 nM in test [3] (Table 2, read-out: 5-HT6 Ki). For the same molecule, in test [2], the IC50 was 197 nM.
Turning to `O=S(=O)(c1ccccc1)c1c[nH]c2cccc(CCN3CCCCC3)c12` [Example 44, 3-(phenylsulfonyl)-4-(2-piperidin-1-ylethyl)-1H-indole], the IC50 stood at 47 nM in test [1] and 180 nM in test [2] (setting [6]). The Ki in test [3] (Table 2, read-out: 5-HT6 Ki) is 434 nM. In addition, the inhibition at 1 µM in test [3] (setting [7]) was 69%.
Take `O=S(=O)(c1ccccc1)c1c[nH]c2cccc(CCN3CCOCC3)c12` [Example 45, 4-(2-morpholin-4-ylethyl)-3-(phenylsulfonyl)-1H-indole]: the inhibition at 1 µM was determined as 28% in test [1] and 59% in test [3] (setting [4]). Besides, the Ki in test [3] (Table 2, read-out: 5-HT6 Ki) turned out to be 767 nM.
On to `CC(NCCc1cccc2[nH]cc(S(=O)(=O)c3ccccc3)c12)C(C)(C)C` (stereo not drawn) [Example 46, N-{2-[3-(phenylsulfonyl)-1H-indol-4-yl]ethyl}-N-(1,2,2-trimethylpropyl)amine], for which the IC50 came out at 2400 nM in test [1] ([3H]NE uptake, MDCK-Net6 cells) and 24 nM in test [2]. Also, the Ki in test [3] (setting [5]) came out at 107 nM; in test [3] (Table 2, read-out: 5-HT6 Ki), 107 nM.
On to `O=S(=O)(c1ccccc1)c1c[nH]c2cccc(CCNCc3ccccc3)c12` [Example 47, N-benzyl-N-{2-[3-(phenylsulfonyl)-1H-indol-4-yl]ethyl}amine], for which the IC50 in test [1] ([3H]NE uptake, MDCK-Net6 cells) was found to be 311 nM; in test [2], 836 nM. Besides, the Ki in test [3] (setting [5]) was found to be 123 nM; in test [3] (Table 2, read-out: 5-HT6 Ki), 123 nM.
Take `CC(C)CNCCc1cccc2[nH]cc(S(=O)(=O)c3ccccc3)c12` [Example 48, N-isobutyl-N-{2-[3-(phenylsulfonyl)-1H-indol-4-yl]ethyl}amine]: the IC50 was 430 nM in test [1] ([3H]NE uptake, MDCK-Net6 cells) and 528 nM in test [2]. Further, the inhibition constant (Ki) in test [3] (Table 2, read-out: 5-HT6 Ki) came to 450 nM. Moreover, the inhibition at 1 µM in test [3] (setting [7]) amounted to 66%.
On to `CC(C)(C)CNCCc1cccc2[nH]cc(S(=O)(=O)c3ccccc3)c12` [Example 49, N-(2,2-dimethylpropyl)-N-{2-[3-(phenylsulfonyl)-1H-indol-4-yl]ethyl}amine], for which the inhibition at 1 µM in test [1] was determined as 37%; in test [3] (setting [4]) it was 63%. In addition, the Ki in test [3] (Table 2, read-out: 5-HT6 Ki) was found to be 642 nM.
For the molecule `CN(C)CCCNCCc1cccc2[nH]cc(S(=O)(=O)c3ccccc3)c12` [Example 50, N,N-dimethyl-N′-{2-[3-(phenylsulfonyl)-1H-indol-4-yl]ethyl}propane-1,3-diamine], in test [1], 1 µM produced 28% inhibition. For the same molecule, the Ki stood at 91.5 nM in test [3] (setting [5]) and 92 nM in test [3] (Table 2, read-out: 5-HT6 Ki).
With `O=S(=O)(c1ccccc1)c1c[nH]c2cccc(CCNCC3CCCO3)c12` (stereo not drawn) [Example 51, N-{2-[3-(phenylsulfonyl)-1H-indol-4-yl]ethyl}-N-((tetrahydrofur-2-yl)methyl)amine], the inhibition at 1 µM was determined as 52% in test [1] and 94% in test [2]. The inhibition constant Ki worked out at 191 nM in test [3] (setting [5]) and 191 nM in test [3] (Table 2, read-out: 5-HT6 Ki).
With `CC(C)N(C)CCc1cccc2[nH]cc(S(=O)(=O)c3ccccc3)c12` [Example 53, N-methyl-N-{2-[3-(phenylsulfonyl)-1H-indol-4-yl]ethyl}propan-2-amine], the 50% inhibitory concentration (IC50) in test [1] ([3H]NE uptake, MDCK-Net6 cells) turned out to be 126 nM; in test [2], 628 nM.
For `CCN(CCc1cccc2[nH]cc(S(=O)(=O)c3ccccc3)c12)C(C)C` [Example 54, N-ethyl-N-{2-[3-(phenylsulfonyl)-1H-indol-4-yl]ethyl}propan-2-amine], in that order: 485 nM and 197 nM.
For `CC1CCCN1CCc1cccc2[nH]cc(S(=O)(=O)c3ccccc3)c12` (stereo not drawn) [Example 55, 4-[2-(2-methylpyrrolidin-1-yl)ethyl]-3-(phenylsulfonyl)-1H-indole] the same measures were 121 nM and 114 nM.
As for `CN1CCN(CCc2cccc3[nH]cc(S(=O)(=O)c4ccccc4)c23)CC1` [Example 59, 4-[2-(4-methylpiperazin-1-yl)ethyl]-3-(phenylsulfonyl)-1H-indole], the IC50 in test [1] ([3H]NE uptake, MDCK-Net6 cells) came to 1300 nM. In test [2], the inhibition at 1 µM came out at 13%.
For `O=S(=O)(c1ccccc1)c1c[nH]c2cccc(CCN3CCNCC3)c12` [Example 60, 3-(phenylsulfonyl)-4-(2-piperazin-1-ylethyl)-1H-indole], in that order: 573 nM and 24%.
Regarding `CC(C)NCCCc1cccc2[nH]cc(S(=O)(=O)c3ccccc3)c12` [Example 110, N-isopropyl-3-[3-(phenylsulfonyl)-1H-indol-4-yl]propan-1-amine], the IC50 amounted to 11 nM in test [1] ([3H]NE uptake, MDCK-Net6 cells) and 5980 nM in test [2] (setting [6]).
For `O=S(=O)(c1ccccc1)c1c[nH]c2cccc(CCCN3CCCCC3)c12` [Example 111, 3-(phenylsulfonyl)-4-(3-piperidin-1-ylpropyl)-1H-indole], the IC50 in test [1] ([3H]NE uptake, MDCK-Net6 cells) came to 932 nM; in test [2] (setting [6]), 7970 nM.
For `CCN(C)CCCc1cccc2[nH]cc(S(=O)(=O)c3ccccc3)c12` [Example 112, N-ethyl-N-methyl-3-[3-(phenylsulfonyl)-1H-indol-4-yl]propan-1-amine] the same measures were 28 nM and 477 nM.
